The target in the assay is T1, SIRT1 (Homo sapiens, UniProt Q96EB6).
T1 sequence (Q96EB6 1-747): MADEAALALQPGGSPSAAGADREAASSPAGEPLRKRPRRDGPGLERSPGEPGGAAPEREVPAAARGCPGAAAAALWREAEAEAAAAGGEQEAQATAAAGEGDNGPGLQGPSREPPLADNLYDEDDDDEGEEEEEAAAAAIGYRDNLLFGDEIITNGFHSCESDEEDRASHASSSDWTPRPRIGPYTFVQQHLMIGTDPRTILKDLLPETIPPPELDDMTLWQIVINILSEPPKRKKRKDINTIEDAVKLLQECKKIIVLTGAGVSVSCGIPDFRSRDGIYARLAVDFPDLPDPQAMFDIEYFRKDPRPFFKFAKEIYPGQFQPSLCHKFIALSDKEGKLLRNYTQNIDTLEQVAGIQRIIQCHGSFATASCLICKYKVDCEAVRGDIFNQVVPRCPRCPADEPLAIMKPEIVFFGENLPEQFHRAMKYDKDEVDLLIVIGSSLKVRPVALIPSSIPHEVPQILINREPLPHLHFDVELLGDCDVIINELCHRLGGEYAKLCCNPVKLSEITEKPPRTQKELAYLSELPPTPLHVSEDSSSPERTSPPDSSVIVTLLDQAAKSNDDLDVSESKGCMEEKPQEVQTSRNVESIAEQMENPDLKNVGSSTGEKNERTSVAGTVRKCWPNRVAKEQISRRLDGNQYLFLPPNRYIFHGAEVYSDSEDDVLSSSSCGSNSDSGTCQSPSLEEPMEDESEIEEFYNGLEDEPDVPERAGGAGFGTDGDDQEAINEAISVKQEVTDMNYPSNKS
The assay is described as follows: TAMRA based mass spectrometry assay of SIRT1 activity. Format: biochemical. As to conditions: for Emax: read-out: TAMRA % Fold Act. From the text:
Mass spectrometry based assays were used to identify modulators of SIRT1 activity. The TAMRA based assay utilized a peptide having 20 amino acid residues as follows: Ac-EE-K(biotin)-[…](Ac)NleSTEG-K(5TMR)-EE-NH2 (SEQ ID NO: 1), wherein K(Ac) is an acetylated lysine residue and Nle is a norleucine. The peptide was labeled with the fluorophore 5TMR (excitation 540 nm/emission 580 nm) at the C-terminus. The sequence of the peptide substrate was based on p53 with several modifications. In addition, the methionine residue naturally present in the sequence was replaced with the norleucine because the methionine may be susceptible to oxidation during synthesis and purification. The Trp based assay utilized a peptide having an amino acid residues as follows: Ac-R-H-K-K(Ac)-W-NH2 (SEQ ID NO: 2).
The TAMRA based mass spectrometry assay was conducted as follows: 0.5 μM peptide substrate and 120 μM βNAD^+ was incubated with 10 nM SIRT1 for 25 minutes at 25° C. in a reaction buffer (50 mM Tris-acetate pH 8, 137 mM NaCl, 2.7 mM KCl, 1 mM MgCl2, 5 mM DTT, 0.05% BSA). The SIRT1 protein was obtained by cloning the SirT1 gene into a T7-promoter containing vector, which was then transformed and expressed in BL21(DE3) bacterial cells. Test compound was added at varying concentrations to this reaction mixture and the resulting reactions were monitored. After the 25 minute incubation with SIRT1, 10 μL of 10% formic acid was added to stop the reaction. The resulting reactions were sealed and frozen for later mass spec analysis. Determination of the amount of deacetylated substrate peptide formed (or, alternatively, the amount of O-acetyl-ADP-ribose (OAADPR) generated) by the sirtuin-mediated NAD-dependent deacetylation reaction allowed for the precise measurement of relative SIRT1 activity in the presence of varying concentrations of the test compound versus control reactions lacking the test compound.
A control for inhibition of sirtuin activity was conducted by adding 1 μL of 500 mM nicotinamide as a negative control at the start of the reaction (e.g., permits determination of maximum sirtuin inhibition). A control for activation of sirtuin activity was conducted using 10 nM of sirtuin protein, with 1 μL of DMSO in place of compound, to determine the amount of deacetylation of the substrate at a given time point within the linear range of the assay. This time point was the same as that used for test compounds and, within the linear range, the endpoint represents a change in velocity.
For the above assay, SIRT1 protein was expressed and purified as follows. The SirT1 gene was cloned into a T7-promoter containing vector and transformed into BL21(DE3). The protein was expressed by induction with 1 mM IPTG as an N-terminal His-tag fusion protein at 18° C. overnight and harvested at 30,000×g. Cells were lysed with lysozyme in lysis buffer (50 mM Tris-HCl, 2 mM Tris[2-carboxyethyl]phosphine (TCEP), 10 μM ZnCl2, 200 mM NaCl) and further treated with sonication for […] for complete lysis. The protein was purified over a Ni-NTA column (Amersham) and fractions containing pure protein were pooled, concentrated and run over a sizing column (Sephadex S200 26/60 global). The peak containing soluble protein was collected and run on an Ion-exchange column (MonoQ). Gradient elution (200 mM-500 mM NaCl) yielded pure protein. This protein was concentrated and dialyzed against dialysis buffer (20 mM Tris-HCl, 2 mM TCEP) overnight. The protein was aliquoted and frozen at −80° C. until further use.

The mark [1] stands for this setting: TAMRA peptide substrate, concentration giving 150% activation of SIRT1.
Where [2] appears, read: TAMRA peptide substrate, percent maximum fold activation.
Where [3] appears, read: concentration of test compound giving 150% activation of SIRT1, TAMRA peptide substrate.
Setting [4] is: percent maximum fold activation of SIRT1, TAMRA peptide substrate.
The mark [5] stands for this setting: TAMRA assay, concentration giving 150% activation of SIRT1.
The mark [6] stands for this setting: TAMRA assay, percent maximum fold activation.

Molecules are shown by their SMILES. Like-named read-outs stand apart in the source and are kept apart here. Where only a bound is given, the exact number is not on record here.

Consider `COc1nccnc1NC(=O)c1cnc2c(C)cc(-c3ccccc3C(F)(F)F)nn12` [Compound 595], for which the “TAMRA EC1.5” value under setting [1] is listed as “A (EC1.5<1 μM)”. Also, the Emax under setting [2] was less than 350%.
As to `O=C(Nc1cnccn1)c1cnc2ccc(-c3c(F)cccc3F)nn12` [Compound 171], the “TAMRA EC1.5 (μM)” value under setting [3] is given as “C (EC1.5>25 μM)”. Under setting [4], the Emax is less than 350%.
Take `Cc1cc(-c2ccccc2C(F)(F)F)nn2c(C(=O)Nc3ccncc3)cnc12` [Compound 193, 8-methyl-N-(pyridin-4-yl)-6-(2-(trifluoromethyl)phenyl)imidazo[1,2-b]pyridazine-3-carboxamide]: the “TAMRA EC1.5 (μM)” value under setting [3] was “A (EC1.5<1 μM)”. The Emax under setting [4] was not below 350%.
Consider `Cc1nccc(NC(=O)c2cnn3ccc(-c4ccccc4OC(F)(F)F)nc23)c1C` [Compound 613], for which the “TAMRA EC1.5 (μM)” value under setting [5] is on record as “A (EC1.5<1 μM)”. Also, the Emax under setting [6] is less than 350%.
`Cc1cc(-c2ccccc2C(F)(F)F)nn2c(NC(=O)c3cnccn3)cnc12` [Compound 408]: the “TAMRA EC1.5” value under setting [1] was “A (EC1.5<1 μM)”. Moreover, the Emax under setting [2] was not below 350%.
Regarding `O=C(Nc1cccc(N2CCOCC2)n1)c1cnc2ccc(-c3cccc(Cl)c3F)nn12` [Compound 158], under setting [3], the “TAMRA EC1.5 (μM)” value is on record as “A (EC1.5<1 μM)”. Further, the Emax under setting [4] is not below 350%.
Consider `Cc1cccc(NC(=O)c2cnc3c(C)cc(-c4ccccc4C(F)(F)F)nn23)n1` [Compound 539], for which, under setting [1], the “TAMRA EC1.5” value is recorded as “A (EC1.5<1 μM)”. The Emax under setting [2] was not below 350%.
For `O=C(Nc1cccc(N2CCCC2)n1)c1cnc2ccc(-c3ccccc3C(F)F)nn12` [Compound 37], the “TAMRA EC1.5 (μM)” value under setting [3] is “A (EC1.5<1 μM)”. Moreover, the Emax under setting [4] is not below 350%.
For `O=C(Nc1cccc(N2CCOCC2)n1)c1cnn2ccc(-c3ccccc3C(F)(F)F)nc12` [Compound 241], under setting [5], the “TAMRA EC1.5 (μM)” value is “A (EC1.5<1 μM)”. For the same molecule, the Emax under setting [6] is not below 350%.
On to `Cc1nc2c(C)cc(-c3ccccc3C(F)(F)F)nn2c1C(=O)Nc1ccnc(C2CC2)n1` [Compound 732], for which, under setting [5], the “TAMRA EC1.5 (μM)” value is “A (EC1.5<1 μM)”. For the same molecule, the Emax under setting [6] was not below 350%.
As for `COc1cc(NC(=O)c2c(C)nc3ccc(-c4ccccc4C(F)(F)F)nn23)ncn1` [Compound 602], the “TAMRA EC1.5 (μM)” value under setting [5] is on record as “A (EC1.5<1 μM)”. Under setting [6], the Emax was not below 350%.
With `O=C(Nc1cccc(N2CCOCC2)n1)c1cnc2ccc(-c3cccc(F)c3Cl)nn12` [Compound 178], the “TAMRA EC1.5 (μM)” value under setting [3] is on record as “A (EC1.5<1 μM)”. Besides, the Emax under setting [4] is less than 350%.
Turning to `COc1ccc(NC(=O)c2cnn3ccc(-c4ccccc4OC(F)(F)F)nc23)nn1` [Compound 635], the “TAMRA EC1.5 (μM)” value under setting [5] is given as “A (EC1.5<1 μM)”. Further, under setting [6], the Emax is not below 350%.
The matching figures for `Cc1cc(NC(=O)c2cnc3ccc(-c4ccccc4OC[C@H](O)CO)nn23)cc(C)n1` [Compound 805]: “A (EC1.5<1 μM)” and not below 350%.
As to `Cc1nc(NC(=O)c2cnc3c(C)cc(-c4ccccc4C(F)(F)F)nn23)sc1C` [Compound 588], under setting [1], the “TAMRA EC1.5” value is on record as “B (EC1.5 1-25 μM)”. The Emax under setting [2] was less than 350%.
Regarding `Cc1nc2ccc(-c3ccccc3Cl)nn2c1NC(=O)c1cccc(N2CCC2)n1` [Compound 356], the “TAMRA EC1.5 (μM)” value under setting [5] is reported as “A (EC1.5<1 μM)”. Further, the Emax under setting [6] was less than 350%.
For the molecule `Cc1nc2ccc(-c3ccccc3C(F)(F)F)nn2c1NC(=O)c1cccc(N2CCOCC2)n1` [Compound 382], the “TAMRA EC1.5 (μM)” value under setting [5] was “A (EC1.5<1 μM)”. Moreover, under setting [6], the Emax is not below 350%.
As to `Cc1nc2ccc(-c3ccccc3C(F)(F)F)nn2c1C(=O)Nc1ccncc1F` [Compound 464], under setting [1], the “TAMRA EC1.5” value is listed as “A (EC1.5<1 μM)”. Besides, the Emax under setting [2] is not below 350%.
For the molecule `Cc1cc(C)nc(NC(=O)c2cnn3ccc(-c4ccccc4OC(F)(F)F)nc23)c1` [Compound 605], the “TAMRA EC1.5 (μM)” value under setting [5] was “A (EC1.5<1 μM)”. Also, the Emax under setting [6] is not below 350%.
On to `Cc1cc(C)nc(NC(=O)c2cnc3ccc(-c4ccccc4OC[C@H](O)CO)nn23)c1` [Compound 792], for which the “TAMRA EC1.5 (μM)” value under setting [5] is “A (EC1.5<1 μM)”. Also, the Emax under setting [6] is not below 350%.
`O=C(Nc1ccccn1)c1ncn2ccc(-c3ccccc3C(F)(F)F)nc12` [Compound 450]: under setting [1], the “TAMRA EC1.5” value is recorded as “B (EC1.5 1-25 μM)”. Moreover, the Emax under setting [2] was not below 350%.
Consider `Cc1ccc(NC(=O)c2cnc3ccc(-c4ccccc4C(F)(F)F)nn23)nn1` [Compound 276], for which the “TAMRA EC1.5 (μM)” value under setting [5] is reported as “A (EC1.5<1 μM)”. Besides, the Emax under setting [6] is not below 350%.
`Cc1nc2ccc(-c3ccccc3Br)nn2c1C(=O)Nc1cccnn1` [Compound 763]: under setting [5], the “TAMRA EC1.5 (μM)” value is listed as “A (EC1.5<1 μM)”. Also, the Emax under setting [6] was not below 350%.
As for `O=C(Nc1nccs1)c1cnn2ccc(-c3ccccc3OC(F)(F)F)nc12` [Compound 607], under setting [5], the “TAMRA EC1.5 (μM)” value is listed as “B (EC1.5 1-25 μM)”. Moreover, the Emax under setting [6] is less than 350%.
On to `O=C(Nc1ncn2ccc(-c3ccccc3C(F)(F)F)nc12)c1cccc(N2CCOCC2)n1` [Compound 456], for which the “TAMRA EC1.5” value under setting [1] was “A (EC1.5<1 μM)”. For the same molecule, the Emax under setting [2] is not below 350%.
For `Cc1cnc(NC(=O)c2cnc3ccc(-c4ccccc4OC(F)(F)F)nn23)s1` [Compound 397], the “TAMRA EC1.5” value under setting [1] is given as “A (EC1.5<1 μM)”. The Emax under setting [2] was less than 350%.
With `O=C(Nc1cccc(OCC(F)(F)F)n1)c1cnc2ccc(-c3ccccc3Cl)nn12` [Compound 262], the “TAMRA EC1.5 (μM)” value under setting [5] is “C (EC1.5>25 μM)”. Under setting [6], the Emax is less than 350%.
As for `Cc1nc(C)c(-c2ccc3ncc(C(=O)Nc4cccc(N5CCOCC5)n4)n3n2)s1` [Compound 65], under setting [3], the “TAMRA EC1.5 (μM)” value is “A (EC1.5<1 μM)”. In addition, under setting [4], the Emax was less than 350%.
In the case of `Cc1nc2ccc(-c3ccccc3OC(F)(F)F)nn2c1C(=O)Nc1ccncc1` [Compound 497], under setting [1], the “TAMRA EC1.5” value was “A (EC1.5<1 μM)”. Besides, the Emax under setting [2] was not below 350%.
Taken in the same sequence, the figures for `Cc1nn2ccc(-c3ccccc3C(F)(F)F)nc2c1NC(=O)c1cccc(O)n1` [Compound 575] were “C (EC1.5>25 μM)” and less than 350%.
With `CCOc1ccc(NC(=O)c2c(C)nc3ccc(-c4ccccc4C)nn23)nn1` [Compound 721], under setting [5], the “TAMRA EC1.5 (μM)” value is reported as “B (EC1.5 1-25 μM)”. Also, the Emax under setting [6] is less than 350%.
With `Cc1cc(NC(=O)c2c(O)nc3ccc(-c4ccccc4C(F)(F)F)nn23)cc(C)n1` [Compound 341], the “TAMRA EC1.5 (μM)” value under setting [5] is on record as “C (EC1.5>25 μM)”. In addition, under setting [6], the Emax was less than 350%.
For the molecule `Cc1nn2ccc(-c3ccccc3C(F)(F)F)nc2c1C(=O)Nc1cncc(F)c1` [Compound 768], the “TAMRA EC1.5 (μM)” value under setting [5] is “A (EC1.5<1 μM)”. Moreover, under setting [6], the Emax is not below 350%.

Source of the values: patent US9957271B2, “Substituted bicyclic aza-heterocycles and analogues as sirtuin modulators” (GlaxoSmithKline, LLC, priority 2012, dated 2018).
